Measured values as given in paper PMC10610494, “Anticancer Peptides Derived from Aldolase A and Induced Tumor-Suppressing Cells Inhibit Pancreatic Ductal Adenocarcinoma Cells” (Pharmaceutics, 2023).
Blank lines part the entries; values can stand above or below the molecule they belong to.

What was measured:
PANC1 cells [1] = experiment: MTT-based viability assay; type: cell-based, human; settings: for IC50: Homo sapiens
Procedure: (§1) MTT-based assessment of metabolic activity involved seeding approximately 2000 cells into 96-well plates. These cells were subsequently incubated with treatment agents for two days. On day 4, the cells were subjected to staining with 0.5 mg/mL thiazolyl blue tetrazolium bromide (M5655, Sigma). The determination of metabolic activity was based on the measurement of optical density at 562 nm. For the evaluation of proliferation activity using the EdU assay, around 1000 cells were seeded into 96-well plates. A fluorescence-based cell proliferation kit (Click-iT™ EdU Alexa Fluor™ 488 Imaging Kit; Thermo Fisher, Waltham, MA, USA) was employed, following the manufacturer’s protocol. This kit facilitated the detection of EdU incorporation as an indicator of proliferating cells.

[2] = tested on: human PDAC tissue fragments; experiment: Ex vivo PDAC tissue fragment assay; type: cell-based
Description: The utilization of human pancreatic cancer tissue was approved by the Indiana University Institutional Review Board (1911155674), and the tissue samples were sourced from the Indiana University Simon Comprehensive Cancer Center Tissue Procurement Core. A freshly procured pancreatic cancer tissue, weighing approximately 1 g, was manually sectioned into small fragments (ranging from 0.5 to 0.8 mm in length) using a scalpel. These fragments were subsequently cultured in DMEM supplemented with 10% FBS and antibiotics for one day. Following this initial incubation, the described conditioned medium (CM) was introduced and maintained for an additional four days, during which any alterations in fragment size were assessed.

PAN198 cells = experiment: MTT-based viability assay; type: cell-based, human; settings: 25 μg/mL peptide, incubated two days, vs control
Procedure: as §1

PA03C cells = experiment: MTT-based viability assay; type: cell-based, human; settings: 25 μg/mL peptide, incubated two days, vs control
Procedure: as §1

MSCs = experiment: MTT-based viability of MSCs; type: cell-based, mice; settings: P04; assay not specified, no data shown
Procedure: Human pancreatic ductal adenocarcinoma (PDAC) cell lines including PANC1 (ATCC, Manassas, VA, USA), PANC198, and Pa03C (sourced from Indiana University Simon Comprehensive Cancer Center, Indianapolis, IN, USA) were cultured in DMEM (10-013-CV, Corning Inc., Corning, NY, USA). The breast cancer cell lines MDA-MB-231 and MDA-MB-436 (ATCC) were grown in RPMI-1640 medium (Gibco, Carlsbad, CA, USA). The culture media for all cell lines were supplemented with 10% fetal bovine serum and antibiotics (100 units/mL penicillin and 100 µg/mL streptomycin; Life Technologies, Grand Island, NY, USA). Jurkat T lymphocytes (ATCC) were cultured in RPMI-1640 medium (10-040-CV, Corning). Murine MSCs derived from the bone marrow of C57BL/6 mice were cultured in DMEM. All cell cultures were maintained at 37 °C with 5% CO2. The overexpression of ALDOA was accomplished by transfecting its plasmids (109,854; Addgene, Cambridge, MA, USA), while blank plasmids (FLAG-HA-pcDNA3.1; Addgene) were employed as controls.
MTT-based assessment of metabolic activity involved seeding approximately 2000 cells into 96-well plates. These cells were subsequently incubated with treatment agents for two days. […] A fluorescence-based cell proliferation kit (Click-iT™ EdU Alexa Fluor™ 488 Imaging Kit; Thermo Fisher, Waltham, MA, USA) was employed, following the manufacturer’s protocol. […]

PANC1 cells [3] = experiment: Transwell invasion assay; type: cell-based, human; settings: 25 μg of P04
Procedure: To assess the invasive potential of tumor cells, a 12-well plate and transwell chambers (353,182, Thermo Fisher) featuring 8-µm pore size were employed. The transwell chambers were pre-coated with 300 µL of Matrigel (100 µg/mL), followed by the addition of 500 µL of serum-free medium. Afterward, the chambers were rinsed three times with a serum-free medium. Subsequently, approximately 7 × 10^4 cells in 300 µL of serum-free DMEM were introduced into the upper chamber, while 800 µL of the conditioned medium (CM) was added to the lower chamber. Upon completion of the experiment, cells that had invaded the lower side of the membrane were fixed and stained using methanol and crystal violet. Utilizing an inverted optical microscope (100×), five randomly selected images were captured. From these images, the average count of stained cells, serving as an indicator of the invasion capacity, was determined.

PANC1 cells [4] = experiment: EdU proliferation assay; type: cell-based, human; settings: 25 μg of P04
Procedure: as §1

PANC1 cells [5] = experiment: Wound-healing scratch assay (motility); type: cell-based, human; settings: 25 μg/mL peptide, 0 h vs 24 h
Procedure: To analyze the two-dimensional migratory behavior of PANC cells, a wound-healing scratch assay was employed to assess the change in the scratched area. Around 3 × 10^5 cells were seeded into 12-well plates on day 1. On day 2, a scratch was carefully created on the cell layer using the tip of a plastic pipette. The cells were then rinsed with DMEM to eliminate any detached cells. Images of the cell-free areas were captured at both 0 h and 24 h using a light microscope (40× magnification). The sizes of the cell-free zones were subsequently quantified using Image J (v1.5.4f).

Snail = experiment: Western blot analysis; type: cell-based, human; settings: 25 μg/mL P04
Procedure: (§2) Cell lysis was achieved using RIPA lysis buffer (sc-24948, Santa Cruz Biotech, Dallas, TX, USA), supplemented with protease inhibitors (PIA32963, Thermo Fisher), and phosphatase inhibitors (2006643, Calbiochem, Billerica, MA, USA). Subsequently, proteins were separated using 10–15% SDS gels (Bio-Rad Laboratories, Hercules, CA, USA) and then transferred onto polyvinylidene difluoride membranes (IPVH00010, Millipore, Billerica, MA, USA). The membrane was first incubated with primary antibodies, followed by secondary antibodies (7074S/7076S, Cell Signaling, Danvers, MA, USA). Antibodies against ALDOA, Snail, p-Src, Src, cleaved caspase 3, caspase 3 (Cell Signaling), and K-Ras (Santa Cruz Biotech) were employed, with β-actin (Sigma) serving as a control. Protein levels were determined utilizing the Super-Signal West Femto Maximum Sensitivity Substrate (PI34096, Thermo Fisher), and signal intensities were quantified using a luminescent image analyzer (LAS-3000, Fuji Film, Tokyo, Japan).

p-Src = experiment: Western blot analysis; type: cell-based, human; settings: 25 μg/mL P04
Procedure: as §2

K-Ras = experiment: Western blot analysis; type: cell-based, human
Procedure: as §2

cleaved caspase 3 = experiment: Western blot analysis; type: cell-based, human; settings: 25 μg/mL P04
Procedure: as §2

ALDOA = experiment: Western blot analysis; type: cell-based, human
Procedure: as §2

[6] = PANC-1, chemotherapeutic agent alone
[7] = PANC-1, chemotherapeutic agent together with 25 μg/mL P04
[8] = following administration of rhALDOA

IC50 (PANC1 cells [1]; [6]): 3300 nM
IC50 (PANC1 cells [1]; [7]): 1600 nM
Molecule: O=c1[nH]cc(F)c(=O)[nH]1 [5-Flu, 5-fluorouracil]
PDAC fragment size ([2]; 10 μM 5-Flu alone, 96 h, n = 8): reduction

IC50 (PANC1 cells [1]; [6]): 1000 nM
IC50 (PANC1 cells [1]; [7]): 800 nM
Molecule: Nc1ccn([C@@H]2O[C@H](CO)[C@@H](O)C2(F)F)c(=O)n1 [gemcitabine]

Molecule: IGEHTPSALAIMENANVLAR [P04, anticancer peptide derived from aldolase A (ALDOA)]
MTT-based viability of PANC1 cells (PANC1 cells [1]; 25 μg/mL peptide, incubated two days, vs control): reduction
MTT-based viability of PAN198 cells (PAN198 cells): reduction
MTT-based viability of PA03C cells (PA03C cells): reduction
inhibitory effect on mesenchymal stem cells (MSC growth) (MSCs): no inhibitory effect
transwell-based invasion of PANC1 cells (PANC1 cells [3]): discernible decrease
PDAC fragment size ([2]; 25 μg/mL P04, 96 h, n = 8, patient tissue ex vivo): notable reduction
EdU-based proliferation of PANC1 cells (PANC1 cells [4]): discernible decrease
scratch-based motility of PANC1 cells (PANC1 cells [5]): reduction
Snail level (Snail; PAN198 cells): downregulation
Snail level (Snail; PANC1 cells): downregulation
p-Src level (p-Src; PAN198 cells): downregulation
p-Src level (p-Src; PANC1 cells): downregulation
K-Ras level (K-Ras; PANC1 cells, 25 μg/mL P04): discernible reduction
cleaved caspase 3 level (cleaved caspase 3; PAN198 cells): increase
cleaved caspase 3 level (cleaved caspase 3; PANC1 cells): elevation
ALDOA level (ALDOA; PANC1 cells, 25 μg/mL P04): decrease

B1: rhALDOA: human recombinant ALDOA protein (MBS8248528, MyBioSource) (protein, UniProt P04075 2-364, looked up)
Fructose-bisphosphate …: PYQYPALTPEQKKELSDIAHRIVAPGKGILAADESTGSIAKRLQSIGTENTEENRRFYRQLLLTADDRVNPCIGGVILFHETLYQKADDGRPFPQVIKSKGGVVGIKVDKGVVPLAGTNGETTTQGLDGLSERCAQYKKDGADFAKWRCVLKIGEHTPSALAIMENANVLARYASICQQNGIVPIVEPEILPDGDHDLKRCQYVTEKVLAAVYKALSDHHIYLEGTLLKPNMVTPGHACTQKFSHEEIAMATVTALRRTVPPAVTGITFLSGGQSEEEASINLNAINKCPLLKPWALTFSYGRALQASALKAWGGKKENLKAAQEEYVKRALANSLACQGKYTPSGQAGAAASESLFVSNHAY
MTT-based viability of PANC1 cells (PANC1 cells [1]; 5 μg/mL recombinant ALDOA protein): notable reduction
K-Ras level (K-Ras; [8]): discernible decreases
ALDOA level (ALDOA; [8]): discernible decreases
